According to patent US20180207148A1 (priority 2015, published 2018):
Where two headings read alike, the source gives them in different places.

Key:
[1] = Cardiovascular safety pharmacology in dogs; assay type: in vivo, dog; conditions: Compound A administered alone
[2] = CNS safety pharmacology study in rats; assay type: in vivo, rat; conditions: Compound A administered alone
[3] = clinical; conditions: human, in vivo, oral
Text: No premedication was allowed during this treatment sequence.

[4] = human, in vivo
Protocol: (§1) A 2-part study was conducted in subjects with advanced/metastatic or recurrent gastric cancer. […] A total of 56 subjects enrolled in this study: 10 subjects with advanced malignant tumors in Part 1 and 46 subjects with advanced gastric cancer in Part 2.

[5] = tested on: transplanted human tumor cell lines; assay: Seven in vivo experiments, human tumor transplant cell lines in mice (overall); parameters: species or system mouse; conditions: paclitaxel administered IP or IV, compared with oral combination
Protocol: In these studies, tumor inhibition rate (IR %) was calculated as ([1-relative tumor growth in treated group/relative tumor growth in control group]×100). Tumor regression was calculated as (Mean Tumor WeightEnd of treatment/Mean tumor WeightBeginning of treatment)×100. Therefore, a value <100% for tumor regression indicates a decrease in tumor weight over the course of the study and a value >100% indicates an increase in tumor weight. Tumor growth delay was calculated as the median number of days to reach two tumor mass doublings.

[6] = dogs; for CL/F: paclitaxel 6 mg/kg with Compound A 3 mg/kg, single oral dose
[7] = clinical; conditions: human, in vivo
[8] = Paclitaxel pharmacokinetics in rats after single oral dose with Compound A; conditions: rat, in vivo
[9] = in vivo; conditions: dog, po, 6 mg/kg, paclitaxel 6 mg/kg with Compound A 3 mg/kg, single oral dose; for AUC(0-t): AUClast; for half-life: t1/2, dogs
[10] = clinical; conditions: human, in vivo; remark: listed apart in the source
Protocol: as §1

[11] = for CL/F: po
[12] = Paclitaxel pharmacokinetics in dogs after single oral dose with Compound A; conditions: dog, in vivo

## COc1cc2c(cc1OC)CN(CCc1ccc(-n3nnc(-c4cc(OC)c(OC)cc4NC(=O)c4cc(=O)c5ccccc5o4)n3)cc1)CC2.CS(=O)(=O)O.O [Compound A]
[1]
  reductions in PR and QRS intervals: absence
[2]
  reductions in body temperature: absence

## CC(=O)O[C@H]1C(=O)[C@@]2(C)[C@H]([C@H](OC(=O)c3ccccc3)[C@]3(O)C[C@H](OC(=O)[C@H](O)[C@@H](NC(=O)c4ccccc4)c4ccccc4)C(C)=C1C3(C)C)[C@]1(OC(C)=O)CO[C@@H]1C[C@@H]2O [Paclitaxel, 5,20-Epoxy-1,2,4,7,10-13-hexahydroxytax-11-en-9-one-4,10-diacetate 2-benzoate 13-ester with (2R,3S)—N-benzoyl-3-phenylisoserine]
[3]
  bioavailability: ~13.4%
[4]
  Overall exposure on Day 2, higher than Day 1: 20-30%
[5]
  activity against transplanted human tumor cell lines: generally less active
[6]
  AUC, fasted group compared to fed group: ~2 fold
  Cmax, fasted group compared to fed group: ~2 fold
[6]; Fasted
  CL/F: 4.2 ± 1.2 L/h
[6]; Fed
  CL/F: 6.4 ± 1.3 L/h
[7]
  half-life: 19.9 to 32.1 h
[7]; po, 60 mg/m2
  AUC(0-inf): 0.727 µg·h/mL
  AUC(0-t): 0.584 µg·h/mL
  Cmax: 0.15 µg/mL
  MRT inf: 28.6 h
  Vd/F: 9130 L
  half-life: 32.1 h
[7]; po, 120 mg/m2
  AUC(0-inf): 1.84 µg·h/mL
  AUC(0-t): 1.61 µg·h/mL
  CL renal: 50 mL/min
  MRT inf: 17 h
  Vd/F: 4040 L
  half-life: 22 h
[7]; po, 180 mg/m2
  AUC(0-inf): 1.99 µg·h/mL
  AUC(0-t): 1.67 µg·h/mL
  CL renal: 30 mL/min
  Cmax: 0.432 µg/mL
  MRT inf: 21.9 h
  Vd/F: 6030 L
  half-life: 24.4 h
[7]; po, 240 mg/m2
  AUC(0-inf): 2.97 µg·h/mL
  AUC(0-t): 2.55 µg·h/mL
  CL renal: 40 mL/min
  Cmax: 0.51 µg/mL
  MRT inf: 23.4 h
  Vd/F: 6010 L
  half-life: 25.7 h
[7]; po, 300 mg/m2
  AUC(0-inf): 3.48 µg·h/mL
  AUC(0-t): 3.14 µg·h/mL
  CL renal: 33.3 mL/min
  Cmax: 0.92 µg/mL
  MRT inf: 16.2 h
  Vd/F: 4930 L
  half-life: 21.2 h
[7]; po, 360 mg/m2
  AUC(0-inf): 2.85 µg·h/mL
  AUC(0-t): 2.51 µg·h/mL
  CL renal: 122 mL/min
  MRT inf: 18.7 h
  Vd/F: 6840 L
  half-life: 20.8 h
[7]; po, 420 mg/m2
  AUC(0-inf): 3.73 µg·h/mL
  AUC(0-t): 3.41 µg·h/mL
  CL renal: 48.3 mL/min
  MRT inf: 14.7 h
  Vd/F: 7180 L
  half-life: 19.9 h
[8]; 5 mg/kg
  AUC(0-t): 0.333 µg·h/mL
  Cmax: 0.103 µg/mL
  Tmax: 0.6 h
[8]; 10 mg/kg
  AUC(0-t): 1.03 µg·h/mL
  Cmax: 0.356 µg/mL
  Tmax: 0.7 h
[8]; 20 mg/kg
  AUC(0-t): 3.01 µg·h/mL
  Cmax: 0.852 µg/mL
  Tmax: 1.2 h
[8]; 30 mg/kg
  AUC(0-t): 6.64 µg·h/mL
  Cmax: 1.76 µg/mL
  Tmax: 1.2 h
  half-life: 6 h
[8]; 40 mg/kg
  AUC(0-t): 11.1 µg·h/mL
  Cmax: 2.49 µg/mL
  Tmax: 1.5 h
  half-life: 5.5 h
[8]; 50 mg/kg
  AUC(0-t): 13.1 µg·h/mL
  Cmax: 3.07 µg/mL
  half-life: 5.3 h
[9]; dogs, Fasted
  AUC(0-t): 1.6 ± 0.416 µg·h/mL
  Tmax: 0.5 h
  Vd/F: 57.9 ± 17.4 L
[9]; dogs, Fed
  AUC(0-t): 0.849 ± 0.12 µg·h/mL
  Tmax: 0.7 ± 0.2 h
  Vd/F: 88 ± 19.6 L
[9]; Cmax, dogs, Fed
  Cmax: 0.299 ± 0.0546 µg/mL
[9]; Fasted
  half-life: 9.4 ± 0.3 h
[9]; Fed
  half-life: 9.9 ± 2.7 h
[10]; oral
  half-life: 18.3 to 19.7 h
[10]; oral, AUC0-24, range across dose levels, Day 1
  AUC(0-t): 0.611 to 0.894 µg·h/mL
[10]; oral, AUC0-24, range across dose levels, Day 2
  AUC(0-t): 0.735 to 1.08 µg·h/mL
[10]; oral, Cmax, range across dose levels, Day 1
  Cmax: 0.202 to 0.28 µg/mL
[10]; oral, Cmax, range across dose levels, Day 2
  Cmax: 0.159 to 0.315 µg/mL
[10]; po, 90 mg/m2, Paclitaxel Cmax, Mean (SD), 90 mg/m^2, Day 1, N 2, two consecutive daily oral doses
  Cmax: 0.202 µg/mL
[10]; po, 90 mg/m2, Paclitaxel Cmax, Mean (SD), 90 mg/m^2, Day 2, N 2, two consecutive daily oral doses
  Cmax: 0.315 µg/mL
[10]; po, 120 mg/m2, Paclitaxel Cmax, Mean (SD), 120 mg/m^2, Day 2, N 3, two consecutive daily oral doses
  Cmax: 0.159 µg/mL
[10]; po, 150 mg/m2
  AUC(0-t): 0.894 µg·h/mL
  Cmax: 0.251 µg/mL
[10]; po, 150 mg/m2, Paclitaxel Cmax, Mean (SD), 150 mg/m^2, Day 2, N 3, two consecutive daily oral doses
  Cmax: 0.276 µg/mL
[11]; human, in vivo
  Mean apparent clearance (CL/F): up to 244.9 L/h
[11]; human, in vivo, 60 mg/m2
  CL/F: 178.4 L/h
[11]; human, in vivo, 180 mg/m2
  CL/F: 173.4 L/h
[11]; human, in vivo, 240 mg/m2
  CL/F: 147.6 L/h
[11]; human, in vivo, 360 mg/m2
  CL/F: 228.7 L/h
[11]; human, in vivo, 420 mg/m2
  CL/F: 244.9 L/h
[11]; oral paclitaxel 60 to 420 mg/m^2 on days 1, 8 and 15 of 28-day cycle with Compound A
  MTD: not reached
[11]; orally administered in combination with Compound A, neutropenia the adverse event associated with discontinuation
  overall toxicity profile: consistent with that of paclitaxel
[12]; 2 mg/kg
  AUC(0-t): 0.413 µg·h/mL
  Tmax: 0.5 h
[12]; 4 mg/kg
  AUC(0-t): 1.33 µg·h/mL
  Tmax: 0.7 h
[12]; 6 mg/kg
  AUC(0-t): 2.12 µg·h/mL
  Tmax: 0.5 h
